According to patent publication US6214834A, “Integrin inhibitor prodrugs” (Dupont Pharmaceuticals Company, priority 1998, dated 2001):
“And” between values parts separate entries of the source, which are not always exact repeats. Equal entries are not always repeated. Where two headings read alike, the source gives them in different places.

What was measured:
[1] = Free solution electrophoretic mobility by capillary electrophoresis; type: physicochemical; conditions: for Electrophoretic Mobility: 400 V/cm, 25° C.
Description: To obtain a preliminary indication of the feasibility of transdermal iontophoretic delivery and the possible dependence on pH, the solution mobilities of the methyl and choline esters were evaluated using capillary electrophoresis. Free solution mobilities were determined using a capillary electrophoresis instrument equipped with a u.v. detector and a cationic amine capillary column of 57 cm total length, 50 cm length to detector, 370 μm o.d.,50 μm i.d. Buffers used were pH 4.5 acetate, pH 6.0 MES and pH 8.0 TRIS. All buffer concentrations were 50 mM. Elution was at 400 V/cm and 25° C., and detection was at 214 nm. Compounds SM192 and SD209 were examined. Structures are given in Scheme 16. For each compound, 2 mg/mL stock solutions were prepared and diluted 1:1 with the running buffer. Therefore, electrophoretic mobility of compound SD209 is about two-fold higher than that of compound SM192 at all pH values examined.

[2] = Surface tension measurements (DuNouy tensiometer); type: physicochemical; conditions: for Surface Tension: pH ~4, 22° C.
Description: Surface activity behavior of the two prodrugs, SM192 and SD209 was examined using tensiometry. Stock solutions of each were prepared at a concentration of 0.06 M in water and dilutions were made using an aqueous solution of the corresponding salt counterion of the prodrug adjusted to a pH ~4. Surface tension measurements were run at 22° C. on a DuNouy tensiometer. Three measurements were run on each solution concentration.

[3] = Partition coefficient estimated by HPLC method; type: physicochemical; conditions: estimated using an HPLC method; read-out: HPLC Log P
[4] = Plasma concentrations after i.v. bolus of SD209 in pigs (in vivo conversion of prodrug); set-up: species or system Yorkshire domestic swine
Description: Data indicating conversion of the prodrug SD209 to the drug, SM256 once administered into circulation in vivo is represented in Table 5. The data in Table 5 id generated from intravenous administration of the prodrug, SD209, in pigs.
SD209 was injected intravenously at a dose of 0.5 mg/kg and plasma was seperated after blood sampling at different intervals. Following solid phase extraction of the plasma, residues were chromatographed on a supelcosil ABZ HPLC column and detected by positive ion electrospray MS/MS using a Sciex API 300. This combination provides a specific assay for both SD209 and SM256. The linear range of the assay for SM256 was from 1 ng/ml to 2000 ng/ml. Plasma concentration data for both pigs are provided below

[5] = pig 1, Time 10.0 hr, i.v. bolus 0.5 mg/kg of SD209
[6] = pig 1, Time 14.0 hr, i.v. bolus 0.5 mg/kg of SD209
[7] = pig 1, Time 24.0 hr, i.v. bolus 0.5 mg/kg of SD209
[8] = pig 2, Time 7.0 hr, i.v. bolus 0.5 mg/kg of SD209
[9] = pig 2, Time 10.0 hr, i.v. bolus 0.5 mg/kg of SD209
[10] = pig 2, Time 14.0 hr, i.v. bolus 0.5 mg/kg of SD209
[11] = pig 2, Time 24.0 hr, i.v. bolus 0.5 mg/kg of SD209

Row | Compound | Electrophoretic Mobility ([1]; pH 4.5 acetate buffer 50 mM) | Electrophoretic Mobility ([1]; pH 6.0 MES buffer 50 mM) | Electrophoretic Mobility ([1]; pH 8.0 TRIS buffer 50 mM) | Surface Tension ([2]; Concentration 0.0015 M) | Surface Tension ([2]; Concentration 0.003 M) | Surface Tension ([2]; Concentration 0.010 M) | Surface Tension ([2]; Concentration 0.015 M) | Surface Tension ([2]; Concentration 0.030 M) | Surface Tension ([2]; Concentration 0.045 M) | Surface Tension ([2]; Concentration 0.054 M) | Surface Tension ([2]; Concentration 0.06 M) | chromatographic logP [3] | plasma conc. [4, 5] | plasma conc. [4, 6] | plasma conc. [4, 7] | plasma conc. [4, 8] | plasma conc. [4, 9] | plasma conc. [4, 10] | plasma conc. [4, 11] | also measured
1 | Cc1cc(C)c(S(=O)(=O)NC(CNC(=O)c2ccc3c(cnn3CCCNc3ncc[nH]3)c2)C(=O)OCC[N+](C)(C)C)c(C)c1 (centres unmarked) [SD209] | 3.2 (cm^2 /v/sec) × 10^-4 | 3.0 (cm^2 /v/sec) × 10^-4 | 2.3 (cm^2 /v/sec) × 10^-4 | 72.6 ± 0.06 dynes/cm | 72.4 ± 0.06 dynes/cm | 72.2 ± 0.2 dynes/cm | 67.4 ± 0.6 dynes/cm | 65.5 ± 0.5 dynes/cm | 61.9 ± 0.4 dynes/cm | 63.7 ± 0.4 dynes/cm | 61.2 ± 0.3 dynes/cm | 0.95 | BQL | BQL | BQL | BQL | BQL | BQL | BQL | electrophoretic mobility relative to compound SM192 ([1]; higher than SM192 at all pH values examined): about two-fold; critical micelle concentration (not attained up to) ([2]; no CMC attained even at the highest concentrations): > 0.6 M; plasma conc. ([4]; pig 1, Time 1.0 hr, i.v. bolus 0.5 mg/kg of SD209): BQL; plasma conc. ([4]; pig 1, Time 3.0 hr, i.v. bolus 0.5 mg/kg of SD209): BQL; plasma conc. ([4]; pig 1, Time 5.0 hr, i.v. bolus 0.5 mg/kg of SD209): BQL; plasma conc. ([4]; pig 1, Time 7.0 hr, i.v. bolus 0.5 mg/kg of SD209): BQL; plasma conc. ([4]; pig 2, Time 1.0 hr, i.v. bolus 0.5 mg/kg of SD209): BQL; plasma conc. ([4]; pig 2, Time 2.0 hr, i.v. bolus 0.5 mg/kg of SD209): BQL; plasma conc. ([4]; pig 2, Time 3.0 hr, i.v. bolus 0.5 mg/kg of SD209): BQL; plasma conc. ([4]; pig 2, Time 5.0 hr, i.v. bolus 0.5 mg/kg of SD209): BQL; concentration at 0 h ([4]; pig, plasma, iv, 0.5 mg/kg, pig 1, Time 0.00 hr, i.v. bolus 0.5 mg/kg of SD209, read-out: plasma conc.): < 2 ng/mL; concentration at 0.1 h ([4]; pig, plasma, iv, 0.5 mg/kg, pig 1, Time 0.1 hr, i.v. bolus 0.5 mg/kg of SD209, read-out: plasma conc.): 60 ng/mL; concentration at 0.25 h ([4]; pig, plasma, iv, 0.5 mg/kg, pig 1, Time 0.25 hr, i.v. bolus 0.5 mg/kg of SD209, read-out: plasma conc.): 20 ng/mL; concentration at 0 h ([4]; pig, plasma, iv, 0.5 mg/kg, pig 2, Time 0.00 hr, i.v. bolus 0.5 mg/kg of SD209, read-out: plasma conc.): < 2 ng/mL; concentration at 0.1 h ([4]; pig, plasma, iv, 0.5 mg/kg, pig 2, Time 0.1 hr, i.v. bolus 0.5 mg/kg of SD209, read-out: plasma conc.): 20 ng/mL; concentration at 0.25 h ([4]; pig, plasma, iv, 0.5 mg/kg, pig 2, Time 0.25 hr, i.v. bolus 0.5 mg/kg of SD209, read-out: plasma conc.): 3 ng/mL; concentration at 0.5 h ([4]; pig, plasma, iv, 0.5 mg/kg, pig 2, Time 0.5 hr, i.v. bolus 0.5 mg/kg of SD209, read-out: plasma conc.): < 2 ng/mL; in vivo conversion of prodrug to SM256 in the circulation ([4]; pigs, i.v. 0.5 mg/kg): quantitatively converted to SM256
2 | COC(=O)C(CNC(=O)c1ccc2c(cnn2CCCNc2ncc[nH]2)c1)NS(=O)(=O)c1c(C)cc(C)cc1C (centres unmarked) [SM192] | 1.7 (cm^2 /v/sec) × 10^-4 | 1.6 (cm^2 /v/sec) × 10^-4 | 1.1 (cm^2 /v/sec) × 10^-4 | 69.1 ± 0.6 dynes/cm | 61.7 ± 0.2 dynes/cm | 53.5 ± 0.3 dynes/cm | 51.5 ± 0.1 dynes/cm | 50.4 ± 0.2 dynes/cm | 49.8 ± 0.4 dynes/cm | 50.0 ± 0.6 dynes/cm | 49.5 ± 0.3 dynes/cm | 3.73 |  |  |  |  |  |  |  | Surface Tension ([2]; Concentration 0.00015 M): 73.0 ± 0.2 dynes/cm; Surface Tension ([2]; Concentration 0.0003 M): 73.0 ± 0.2 dynes/cm; Surface Tension ([2]; Concentration 0.0006 M): 72.3 ± 0.1 dynes/cm; Surface Tension ([2]; Concentration 0.001 M): 69.3 ± 0.6 dynes/cm; Surface Tension ([2]; Concentration 0.006 M): 56.9 ± 0.4 dynes/cm; critical micelle concentration (CMC) ([2]; from surface tension vs concentration): ~ 16 mM and ~ 11 mg/mL
3 | Cc1cc(C)c(S(=O)(=O)NC(CNC(=O)c2ccc3c(cnn3CCCNc3ncc[nH]3)c2)C(=O)O)c(C)c1 (centres unmarked) [SM256] |  |  |  |  |  |  |  |  |  |  |  |  | BQL | BQL | BQL | BQL | BQL | BQL | BQL | 
